# Where a SMILES comes first, the peptide text is derived from it.
# Legend:
# Hs-578T = experiment: Growth inhibition of human HS578T cells at 10 uM; format: functional
# BT-549 = experiment: Growth inhibition of human BT549 cells at 10 uM; format: functional
smiles,measurement,setting,value
CC(C)C[C@@H]1NC(=O)[C@H]([C@@H](C)O)NC(=O)[C@@H]2CCCN2C(=O)[C@H](Cc2ccccc2)NC(=O)[C@@H]2CCCN2C(=O)[C@H](Cc2ccc(O)cc2)NC(=O)[C@@H]2CCCN2C(=O)[C@H](Cc2ccccc2)NC(=O)[C@@H]2CCCN2C(=O)[C@H](CC(C)C)NC1=O [STYLOPEPTIDE 2] (cyclo(FPTLLPFPYP)),inhibition at 10 µM,Hs-578T,56%
same,inhibition at 10 µM,BT-549,77%

# — ChEMBL document CHEMBL1144757, “Stylopeptide 2, a proline-rich cyclodecapeptide from the sponge Stylotella sp” (2008)
